“And” between values parts separate entries of the source, which are not always exact repeats. Equal entries are not always repeated.
Legend:
[1] = Particle size distribution (PSD) of Compound 1 before and after manual or jet milling (Sympatec HELOS, dry method); assay type: physicochemical
Protocol: Compound 1 was milled by manual milling or jet milling to reduce particle size. For manual milling, Compound 1 was weighed into a ceramic motor and gentle milled for ˜5 mins. Particle size distribution (PSD) of Compound 1 indicated D90=77.82 μm and D90=28.27 μm before and after manual milling of Compound 1. PSD via dry method was conducted by Sympatec HELOS particle size analyzer, and dispersing system and pressure were RODOS and 0.5 bar, respectively.
For jet milling, Compound 1 was micronized by jet milling with a yield of ˜90%. Particle size of the jet-milled material was reduced to a D90 range of 4.7 to 13.5 μm.

[2] = Stability of suspension formulations in methylcellulose/Poloxamer 188 vehicles (appearance, concentration, purity, PSD); assay type: physicochemical; design: key to Appearance: *: homogeneous suspension initially, sedimentation occurred over time and returned to homogeneous after gentle agitation for ~1 min; #: viscous homogeneous suspension initially, sedimentation occurred over time and returned to homogeneous after gentle agitation for ~2 mins; conditions: 0.5% 400 cP MC, 0.2% Poloxamer 188
Protocol: As shown in Tables 9-11, various suspension formulations were tested for stability under different conditions.
To prepare a suspension weigh required amount of milled Compound 1 into a glass container and add corresponding volume of the vehicle. Thoroughly disperse the compound into a homogenous suspension using an overhead mixer at the final concentration target. Concentrations were prepared at 0.1 mg/mL and at 10 mg/mL. The suspension products were physically evaluated on visual appearance, concentration, purity and PSD.
The vehicles are prepared by dissolving 0.5% by weight of either 400 cP methylcellulose or 4000 cP methylcellulose and 0.2% Poloxamer 188. For the preserved suspensions, additionally 1.0% by volume of paraben preservative solution was dissolved into vehicle using an overhead mixer. The paraben preservative solution was prepared by dissolving 0.10 g methyl paraben, 0.025 g propylparaben in 9.875 g propylene glycol dissolved by mixing with a stir bar at room temperature for 1 hour.

[3] = target 0.1 mg/mL, 2-8° C., 14 D
[4] = target 0.1 mg/mL, 2-8° C., 28 D
[5] = target 0.1 mg/mL, 2-8° C., time 0
[6] = target 0.1 mg/mL, 25° C./60% RH, 2 M
[7] = target 0.1 mg/mL, 25° C./60% RH, 3 M
[8] = target 0.1 mg/mL, 25° C./60% RH, 7 D
[9] = target 0.1 mg/mL, 25° C./60% RH, 14 D
[10] = target 0.1 mg/mL, 25° C./60% RH, 28 D
[11] = target 0.1 mg/mL, 25° C./60% RH, time 0
[12] = target 10 mg/mL, 2-8° C., time 0
[13] = target 10 mg/mL, 25° C./60% RH, 2 M
[14] = target 10 mg/mL, 25° C./60% RH, 3 M
[15] = target 10 mg/mL, 25° C./60% RH, 7 D
[16] = target 10 mg/mL, 25° C./60% RH, 14 D
[17] = target 10 mg/mL, 25° C./60% RH, 28 D
[18] = target 10 mg/mL, 25° C./60% RH, time 0

Compound: CCOC(F)(F)c1nnc2cnc(-c3cnc(OCC(F)(F)F)c(F)c3)cn12 [Compound 1, 3-(ethoxydifluoromethyl)-6-(5-fluoro-6-(2,2,2-trifluoroethoxy)pyridin-3-yl)-[1,2,4]triazolo[4,3-a]pyrazine]
- D10 ([1]; after jet milling, batch 1): 0.7 μm
- D50 ([1]; after jet milling, batch 1): 1.8 μm
- D90 ([1]; after jet milling, batch 1): 4.7 μm
- D10 ([1]; after jet milling, batch 2): 1.1 μm
- D50 ([1]; after jet milling, batch 2): 3.7 μm
- D90 ([1]; after jet milling, batch 2): 8.3 μm
- D10 ([1]; after jet milling, batch 3): 0.87 μm
- D50 ([1]; after jet milling, batch 3): 5.58 μm
- D90 ([1]; after jet milling, batch 3): 13.5 μm
- D10 ([1]; after manual milling): 0.8 μm
- D50 ([1]; after manual milling): 3.6 μm
- D90 ([1]; after manual milling): 28.27 μm and 28.3 μm
- D10 ([1]; before milling): 1.8 μm
- D50 ([1]; before milling): 22.2 μm
- D90 ([1]; before milling): 77.82 μm and 77.8 μm
- D10 ([1]; before milling, batch 1): 1.8 μm
- D50 ([1]; before milling, batch 1): 15.4 μm
- D90 ([1]; before milling, batch 1): 80.9 μm
- D10 ([1]; before milling, batch 2): 13.2 μm
- D50 ([1]; before milling, batch 2): 67.3 μm
- D90 ([1]; before milling, batch 2): 162.1 μm
- D10 ([1]; before milling, batch 3): 14.6 μm
- D50 ([1]; before milling, batch 3): 56.8 μm
- D90 ([1]; before milling, batch 3): 104 μm
- Appearance ([2]; target 0.1 mg/mL, 2-8° C., 2 M): *
- Conc. ([2]; target 0.1 mg/mL, 2-8° C., 2 M): 110 µg/mL
- PSD (D90) ([2]; target 0.1 mg/mL, 2-8° C., 2 M): 9.1 μm
- Purity ([2]; target 0.1 mg/mL, 2-8° C., 2 M): 95.87%
- Appearance ([2]; target 0.1 mg/mL, 2-8° C., 3 M): *
- Conc. ([2]; target 0.1 mg/mL, 2-8° C., 3 M): 110 µg/mL
- PSD (D90) ([2]; target 0.1 mg/mL, 2-8° C., 3 M): 12.7 μm
- Purity ([2]; target 0.1 mg/mL, 2-8° C., 3 M): 93.20%
- Appearance ([2]; target 0.1 mg/mL, 2-8° C., 7 D): *
- Conc. ([2]; target 0.1 mg/mL, 2-8° C., 7 D): 120 µg/mL
- PSD (D90) ([2]; target 0.1 mg/mL, 2-8° C., 7 D): 18.2 μm
- Purity ([2]; target 0.1 mg/mL, 2-8° C., 7 D): 100%
- Appearance [2, 3]: *
- Conc. [2, 3]: 110 µg/mL
- PSD (D90) [2, 3]: 14.2 μm
- Purity [2, 3]: 100%
- Appearance [2, 4]: *
- Conc. [2, 4]: 110 µg/mL
- PSD (D90) [2, 4]: 15.4 μm
- Purity [2, 4]: 100%
- Appearance [2, 5]: *
- Conc. [2, 5]: 110 µg/mL
- PSD (D90) [2, 5]: 19.9 μm
- Purity [2, 5]: 100%
- Appearance [2, 6]: *
- Conc. [2, 6]: 110 µg/mL
- PSD (D90) [2, 6]: 8.6 μm
- Purity [2, 6]: 95.87%
- Appearance [2, 7]: *
- Conc. [2, 7]: 110 µg/mL
- PSD (D90) [2, 7]: 11.1 μm
- Purity [2, 7]: 93.20%
- Appearance [2, 8]: *
- Conc. [2, 8]: 110 µg/mL
- PSD (D90) [2, 8]: 19.9 μm
- Purity [2, 8]: 100.0%
- Appearance [2, 9]: *
- Conc. [2, 9]: 110 µg/mL
- PSD (D90) [2, 9]: 12.9 μm
- Purity [2, 9]: 100%
- Appearance [2, 10]: *
- Conc. [2, 10]: 100 µg/mL
- PSD (D90) [2, 10]: 8.7 μm
- Purity [2, 10]: 100%
- Appearance [2, 11]: *
- Conc. [2, 11]: 110 µg/mL
- PSD (D90) [2, 11]: 19.9 μm
- Purity [2, 11]: 100.0%
- Appearance ([2]; target 10 mg/mL, 2-8° C., 2 M): *
- Conc. ([2]; target 10 mg/mL, 2-8° C., 2 M): 10990 µg/mL
- PSD (D90) ([2]; target 10 mg/mL, 2-8° C., 2 M): 4.0 μm
- Purity ([2]; target 10 mg/mL, 2-8° C., 2 M): 99.83%
- Appearance ([2]; target 10 mg/mL, 2-8° C., 3 M): *
- Conc. ([2]; target 10 mg/mL, 2-8° C., 3 M): 10130 µg/mL
- PSD (D90) ([2]; target 10 mg/mL, 2-8° C., 3 M): 3.6 μm
- Purity ([2]; target 10 mg/mL, 2-8° C., 3 M): 99.83%
- Appearance ([2]; target 10 mg/mL, 2-8° C., 7 D): *
- Conc. ([2]; target 10 mg/mL, 2-8° C., 7 D): 10180 µg/mL
- PSD (D90) ([2]; target 10 mg/mL, 2-8° C., 7 D): 6.4 μm
- Purity ([2]; target 10 mg/mL, 2-8° C., 7 D): 99.83%
- Appearance ([2]; target 10 mg/mL, 2-8° C., 14 D): *
- Conc. ([2]; target 10 mg/mL, 2-8° C., 14 D): 10660 µg/mL
- PSD (D90) ([2]; target 10 mg/mL, 2-8° C., 14 D): 5.4 μm
- Purity ([2]; target 10 mg/mL, 2-8° C., 14 D): 99.83%
- Appearance ([2]; target 10 mg/mL, 2-8° C., 28 D): *
- Conc. ([2]; target 10 mg/mL, 2-8° C., 28 D): 10560 µg/mL
- PSD (D90) ([2]; target 10 mg/mL, 2-8° C., 28 D): 3.8 μm
- Purity ([2]; target 10 mg/mL, 2-8° C., 28 D): 99.83%
- Appearance [2, 12]: *
- Conc. [2, 12]: 10040 µg/mL
- PSD (D90) [2, 12]: 5.6 μm
- Purity [2, 12]: 99.83%
- Appearance [2, 13]: *
- Conc. [2, 13]: 10470 µg/mL
- PSD (D90) [2, 13]: 4.3 μm
- Purity [2, 13]: 99.83%
- Appearance [2, 14]: *
- Conc. [2, 14]: 10160 µg/mL
- PSD (D90) [2, 14]: 3.5 μm
- Purity [2, 14]: 99.83%
- Appearance [2, 15]: *
- Conc. [2, 15]: 10480 µg/mL
- PSD (D90) [2, 15]: 6.3 μm
- Purity [2, 15]: 99.83%
- Appearance [2, 16]: *
- Conc. [2, 16]: 9850 µg/mL
- PSD (D90) [2, 16]: 5.2 μm
- Purity [2, 16]: 99.83%
- Appearance [2, 17]: *
- Conc. [2, 17]: 10000 µg/mL
- PSD (D90) [2, 17]: 4.6 μm
- Purity [2, 17]: 99.83%
- Appearance [2, 18]: *
- Conc. [2, 18]: 10040 µg/mL
- PSD (D90) [2, 18]: 5.6 μm
- Purity [2, 18]: 99.83%

Reference: patent publication US12552797B2, “Process for making (3-[cyclopropylethoxy(difluoro)methyl]-6-6[5-fluoro-6-(2,2,2-trifluoroethoxy-3-pyridyl]- [1,2,4]triazolo[4,3-a]pyrazine” (Praxis Precision Medicines, Inc., priority 2019, dated 2026)
